The subject of assay [1] is BJ. Nature of the assay: cytotoxicity toward BJ-TERT-LT-ST fibroblasts, dose response, cell-based, RAS-independent, luminescence (AID 1935).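 Note: BJ fibroblasts immortalized with TERT plus LT and ST oncogenes.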 The format is functional. Conditions: Homo sapiens.
The test system of assay [2] is BJ. Nature of the assay: cells. The note with it: Homo sapiens. The class given is functional, cell-based.
Assay [3] relates to BJ. Nature of the assay: cytotoxicity toward BJ-TERT fibroblasts, dose response, cell-based, RAS-independent, luminescence (AID 1933). The class given is functional. Conditions: Homo sapiens.
Assay [4] in a line: cytotoxicity toward DRD oncogenic fibroblasts, dose response, cell-based, non-viral oncogenic, luminescence (AID 1934). The class given is functional. The note with it: Homo sapiens.
Assay [5] concerns BJ. Nature of the assay: cytotoxicity toward Ras-transformed BJeLR fibroblasts, dose response, cell-based, alamar blue fluorescence, cherrypicked samples (AID 2631).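 Note: confirmatory dose-response assay in RAS-dependent BJ fibroblasts engineered with TERT, LT and ST, with cytotoxicity read by fluorescence.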 The format is functional. The note with it: Homo sapiens.
The next assay addresses T1, Caspase-3 (Homo sapiens, UniProt P42574).
T1 sequence (P42574 whole entry): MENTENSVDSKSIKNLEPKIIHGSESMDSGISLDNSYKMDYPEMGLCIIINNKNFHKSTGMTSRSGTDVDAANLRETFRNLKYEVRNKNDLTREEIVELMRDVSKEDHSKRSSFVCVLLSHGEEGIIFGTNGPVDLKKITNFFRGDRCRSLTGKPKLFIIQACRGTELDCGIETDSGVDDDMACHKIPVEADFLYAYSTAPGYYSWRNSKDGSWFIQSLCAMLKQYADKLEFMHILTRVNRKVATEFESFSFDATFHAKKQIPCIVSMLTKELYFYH
Nature of the assay: SAR Analysis of small molecule inhibitors of Sentrin-specific proteases (SENPs) using a Caspase-3 Selectivity assay. [Related pubchem assays (depositor defined):AID2540, AID2599, AID434973, AID489001]. The class given is functional.

The target of assay [6] is T2, Sentrin-specific protease 7 (Homo sapiens, UniProt Q9BQF6).
T2 sequence (Q9BQF6 whole entry): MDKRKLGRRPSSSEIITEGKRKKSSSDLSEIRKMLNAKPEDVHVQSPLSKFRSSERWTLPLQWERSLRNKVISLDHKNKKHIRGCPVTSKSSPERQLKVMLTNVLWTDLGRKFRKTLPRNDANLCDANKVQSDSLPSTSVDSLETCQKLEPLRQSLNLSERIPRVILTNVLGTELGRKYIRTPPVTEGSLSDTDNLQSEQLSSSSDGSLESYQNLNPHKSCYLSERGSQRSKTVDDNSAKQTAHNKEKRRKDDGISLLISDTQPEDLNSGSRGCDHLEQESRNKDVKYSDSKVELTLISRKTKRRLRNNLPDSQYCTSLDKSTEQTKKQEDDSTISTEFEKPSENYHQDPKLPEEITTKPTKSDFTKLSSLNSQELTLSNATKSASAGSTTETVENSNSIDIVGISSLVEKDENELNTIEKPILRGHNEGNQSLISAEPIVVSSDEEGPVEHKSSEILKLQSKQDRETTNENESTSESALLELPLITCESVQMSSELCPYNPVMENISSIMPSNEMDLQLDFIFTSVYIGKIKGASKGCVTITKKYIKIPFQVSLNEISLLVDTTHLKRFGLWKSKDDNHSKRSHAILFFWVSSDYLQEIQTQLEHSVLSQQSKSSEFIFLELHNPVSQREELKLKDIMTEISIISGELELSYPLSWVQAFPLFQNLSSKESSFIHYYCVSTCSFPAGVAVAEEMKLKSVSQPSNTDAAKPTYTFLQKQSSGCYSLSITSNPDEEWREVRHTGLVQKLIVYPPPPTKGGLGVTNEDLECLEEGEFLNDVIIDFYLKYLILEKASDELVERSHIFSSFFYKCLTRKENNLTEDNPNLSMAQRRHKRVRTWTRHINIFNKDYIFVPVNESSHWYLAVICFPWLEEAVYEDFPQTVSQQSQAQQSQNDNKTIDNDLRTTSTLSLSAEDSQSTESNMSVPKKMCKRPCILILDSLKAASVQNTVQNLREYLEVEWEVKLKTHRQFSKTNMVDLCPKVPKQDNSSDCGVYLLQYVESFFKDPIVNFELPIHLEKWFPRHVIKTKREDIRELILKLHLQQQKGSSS
Nature of the assay: SENP7 protease inhibitors, SAR follow-up, biochemical, luminescence (AID 504497). The format is functional.

The target in assay [7] is T3, Sentrin-specific protease 6 (Homo sapiens, UniProt Q9GZR1).
T3 sequence (Q9GZR1 whole entry): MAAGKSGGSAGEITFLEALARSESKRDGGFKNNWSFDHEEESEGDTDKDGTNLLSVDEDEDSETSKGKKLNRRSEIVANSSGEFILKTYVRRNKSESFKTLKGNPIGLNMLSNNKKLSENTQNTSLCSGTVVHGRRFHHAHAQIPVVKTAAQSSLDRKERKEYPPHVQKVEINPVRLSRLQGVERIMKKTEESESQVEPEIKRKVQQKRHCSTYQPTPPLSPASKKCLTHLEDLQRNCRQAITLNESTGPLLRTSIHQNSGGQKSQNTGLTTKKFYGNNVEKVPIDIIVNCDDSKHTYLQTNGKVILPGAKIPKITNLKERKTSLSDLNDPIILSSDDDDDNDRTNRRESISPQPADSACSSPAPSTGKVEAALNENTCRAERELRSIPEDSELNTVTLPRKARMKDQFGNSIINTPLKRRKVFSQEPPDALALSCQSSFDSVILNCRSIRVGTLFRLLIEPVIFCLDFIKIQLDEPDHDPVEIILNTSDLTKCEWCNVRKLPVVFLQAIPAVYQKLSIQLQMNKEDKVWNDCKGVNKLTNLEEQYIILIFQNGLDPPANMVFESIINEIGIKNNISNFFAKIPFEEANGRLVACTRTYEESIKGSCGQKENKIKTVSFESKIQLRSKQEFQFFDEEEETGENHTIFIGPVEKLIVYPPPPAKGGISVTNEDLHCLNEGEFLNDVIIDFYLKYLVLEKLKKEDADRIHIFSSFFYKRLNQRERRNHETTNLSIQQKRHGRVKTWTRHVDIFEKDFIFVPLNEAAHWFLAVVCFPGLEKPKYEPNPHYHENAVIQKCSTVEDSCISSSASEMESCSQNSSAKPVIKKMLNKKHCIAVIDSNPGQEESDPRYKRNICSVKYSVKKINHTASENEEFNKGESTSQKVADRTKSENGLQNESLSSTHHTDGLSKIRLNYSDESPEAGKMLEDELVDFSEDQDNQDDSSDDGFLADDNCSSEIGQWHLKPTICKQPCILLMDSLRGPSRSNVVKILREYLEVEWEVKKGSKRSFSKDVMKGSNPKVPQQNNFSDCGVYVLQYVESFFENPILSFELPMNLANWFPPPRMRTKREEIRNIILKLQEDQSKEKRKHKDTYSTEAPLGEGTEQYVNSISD
Nature of the assay: SAR Analysis of small molecule inhibitors of Sentrin-specific protease 6 (SENP6) using a Luminescent assay. [Related pubchem assays (depositor defined):AID2582, AID2599]. The format is functional.

Assay [8] has as its target T4, Sentrin-specific protease 8 (Homo sapiens, UniProt Q96LD8).
T4 sequence (Q96LD8 whole entry): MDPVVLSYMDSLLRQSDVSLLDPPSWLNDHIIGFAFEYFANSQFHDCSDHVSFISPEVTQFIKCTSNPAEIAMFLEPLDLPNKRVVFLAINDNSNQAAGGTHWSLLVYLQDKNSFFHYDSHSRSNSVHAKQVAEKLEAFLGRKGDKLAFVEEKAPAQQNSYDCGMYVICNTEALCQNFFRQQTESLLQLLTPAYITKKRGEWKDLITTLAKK
Nature of the assay: SENP8 protease inhibitors, SAR follow-up, biochemical, luminescence (AID 504501). The class given is functional.

Assay [9] deals with T5, Endoribonuclease toxin MazF (Escherichia coli K-12, UniProt P0AE70).
T5 sequence (P0AE70 whole entry): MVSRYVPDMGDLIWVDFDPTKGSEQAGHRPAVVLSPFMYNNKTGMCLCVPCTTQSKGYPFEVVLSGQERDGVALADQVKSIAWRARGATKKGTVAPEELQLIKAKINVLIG
Nature of the assay: fluorescent RNA oligo signal without MazF, dose response, counter-screen for MazEF activator project, biochemical, fluorescence, single-stranded RNase substrate (AID 588502). The class given is functional. Background: The purpose of a counterscreen is to sort out artefacts and off-target activity.

The target in assay [10] is T6, RNA-binding protein pos-1 (Caenorhabditis elegans, UniProt G5EF15).
T6 sequence (G5EF15 whole entry): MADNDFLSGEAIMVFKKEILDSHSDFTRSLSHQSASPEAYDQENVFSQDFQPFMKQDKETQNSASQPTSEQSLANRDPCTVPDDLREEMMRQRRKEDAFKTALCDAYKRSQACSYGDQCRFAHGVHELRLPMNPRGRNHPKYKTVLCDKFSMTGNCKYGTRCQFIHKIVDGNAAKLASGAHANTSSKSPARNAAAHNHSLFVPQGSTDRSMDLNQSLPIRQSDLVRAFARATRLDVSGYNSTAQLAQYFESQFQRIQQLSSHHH
Nature of the assay: inhibitors of POS-1/mex-3 RNA binding, dose response, biochemical, fluorescence polarization (AID 1964).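 Note: purified POS-1 fused to maltose binding protein made in E. coli; potency of compounds blocking POS-1 binding to fluorescent RNA.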 On the technique in general: Fluorescence polarisation rises when a labelled molecule tumbles more slowly, as on binding a larger partner.

In assay [11] the target is T7, Zinc finger protein mex-5 (Caenorhabditis elegans, UniProt Q9XUB2).
T7 sequence (Q9XUB2 whole entry): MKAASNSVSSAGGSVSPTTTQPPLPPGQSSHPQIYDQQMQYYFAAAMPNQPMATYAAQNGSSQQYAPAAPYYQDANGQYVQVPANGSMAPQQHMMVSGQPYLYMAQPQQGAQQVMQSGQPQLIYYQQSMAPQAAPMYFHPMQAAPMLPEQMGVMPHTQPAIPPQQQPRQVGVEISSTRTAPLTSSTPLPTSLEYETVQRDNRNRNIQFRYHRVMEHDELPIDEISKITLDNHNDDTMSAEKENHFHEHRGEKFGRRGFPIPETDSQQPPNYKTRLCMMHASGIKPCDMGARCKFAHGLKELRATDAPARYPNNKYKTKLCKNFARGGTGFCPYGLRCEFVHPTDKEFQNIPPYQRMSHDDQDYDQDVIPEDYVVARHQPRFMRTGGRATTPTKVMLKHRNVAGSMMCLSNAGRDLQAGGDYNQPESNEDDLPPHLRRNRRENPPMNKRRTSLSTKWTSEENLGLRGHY
Nature of the assay: MEX-5/TCR-2 RNA interaction inhibitors, dose response, biochemical, C. elegans, fluorescence polarization (AID 1960).

Assay [12] deals with T5, Endoribonuclease toxin MazF. Nature of the assay: MazF toxin RNase activators, dose response, biochemical, fluorescence, single-stranded RNA substrate, uHTS hits (AID 588481). The class given is functional.

Active and inactive are the calls of the source. A value given as a limit tells only on which side of the number the result lay.

Take `CSc1cc(-c2ccccc2)n(Cc2ccccc2Cl)c(=O)c1C#N`: the half-maximal effective concentration (EC50) in the assay with BJ [1] is 33.6 µM (inconclusive); in the assay on BJ [2], 43.8 µM (active); with BJ [3] it was 10.1 µM (inconclusive); in assay [4] it was 3.67 µM (active); in the assay with BJ [5], 1.92 µM (active).
As for `Cc1cccc(N/N=C/c2c[nH]c3ccccc23)c1`, the IC50 on Caspase-3 is > 99 µM (inactive); in [6], 18 µM (active); in assay [7], 32 µM (active); in assay [8], 34.5 µM (active).
In the case of `CCCCOc1cccc(C2C(C(=O)c3ccc(C)o3)=C(O)C(=O)N2c2nnc(C)s2)c1` (stereo unspecified), the EC50 in [9] is 20.4 µM (inactive); in assay [10] it was 102 µM (active); in assay [11], 77.4 µM (active); in assay [12], > 99 µM (inactive).
Turning to `CN(C)c1nc(NCc2ccccc2)nc(N/N=C/c2ccc(Br)cc2)n1`, the IC50 (at Caspase-3; in assay [6]; in [7]; in assay [8]) was > 99 µM (inactive) in each case.
For `O=[N+]([O-])c1ccccc1CNCCc1c[nH]c2ccccc12`, the IC50 (at Caspase-3; in assay [6]; in assay [7]; in assay [8]) was > 99 µM (inactive) throughout.

Broadly, the EC50 is the concentration that produces a half-maximal response. The IC50 is the concentration that gives 50% inhibition.

Source of the values: ChEMBL document CHEMBL1201862, “PubChem BioAssay data set” (2004).
